Source: ChEMBL document CHEMBL3045806, “Antimicrobial, analgesic, DPPH scavenging activities and molecular docking study of some 1,3,5-triaryl-2-pyrazolines” (2012)
Values after ≈ are worked out from the molar mass of the structure shown.

Tests used:
Type in all cases: functional
Mus musculus = experiment: Analgesic activity in Mus musculus Swiss albino (mouse) assessed as protection against acetic acid-induced writhing at 100 mg/kg, po administered 1 hr prior challenge measured after 5 min of challenge for 20 min
Aspergillus niger [1] = experiment: Antimicrobial activity against Aspergillus niger at 40 ug/ml after 72 hr by agar well diffusion method; conditions: read-out: IZ
Streptococcus pyogenes [2] = experiment: Antimicrobial activity against Streptococcus pyogenes at 40 ug/ml after 24 hr by agar well diffusion method; conditions: read-out: IZ
Bacillus subtilis [3] = experiment: Antimicrobial activity against Bacillus subtilis at 40 ug/ml after 24 hr by agar well diffusion method; conditions: read-out: IZ
[4] = Antioxidant activity assessed as DPPH scavenging activity at 10 ug/ml after 30 min by UV-visible spectrophotometry
Klebsiella pneumoniae [5] = experiment: Antimicrobial activity against Klebsiella pneumoniae after 24 hr by micro dilution method
Streptococcus pyogenes [6] = experiment: Antimicrobial activity against Streptococcus pyogenes after 24 hr by micro dilution method
Aspergillus niger [7] = experiment: Antimicrobial activity against Aspergillus niger after 24 hr by micro dilution method
Candida albicans [8] = experiment: Antimicrobial activity against Candida albicans at 40 ug/ml after 72 hr by agar well diffusion method; conditions: read-out: IZ
Pseudomonas aeruginosa [9] = experiment: Antimicrobial activity against Pseudomonas aeruginosa after 24 hr by micro dilution method
Bacillus subtilis [10] = experiment: Antimicrobial activity against Bacillus subtilis after 24 hr by micro dilution method
Pseudomonas aeruginosa [11] = experiment: Antimicrobial activity against Pseudomonas aeruginosa at 40 ug/ml after 24 hr by agar well diffusion method; conditions: read-out: IZ
Candida albicans [12] = experiment: Antimicrobial activity against Candida albicans after 24 hr by micro dilution method
Klebsiella pneumoniae [13] = experiment: Antimicrobial activity against Klebsiella pneumoniae at 40 ug/ml after 24 hr by agar well diffusion method; conditions: read-out: IZ

SMILES: CC(=O)Oc1ccccc1C(=O)O [ASPIRIN]
- Activity (Mus musculus): 58.25%

SMILES: Fc1ccc(C2=NN(c3ccccc3)C(c3ccc(F)cc3)C2)cc1 (stereo unspecified)
- zone of inhibition at 40 µg/mL (Aspergillus niger [1]): 20 mm
- Activity (Mus musculus): 49.65%
- zone of inhibition at 40 µg/mL (Streptococcus pyogenes [2]): 23 mm
- zone of inhibition at 40 µg/mL (Bacillus subtilis [3]): 21 mm
- Activity [4]: 51.2%
- MIC (Klebsiella pneumoniae [5]): 30 µg/mL (≈ 89.7 µM)
- MIC (Streptococcus pyogenes [6]): 30 µg/mL (≈ 89.7 µM)
- MIC (Aspergillus niger [7]): 40 µg/mL (≈ 120 µM)
- zone of inhibition at 40 µg/mL (Candida albicans [8]): 20 mm
- MIC (Pseudomonas aeruginosa [9]): 40 µg/mL (≈ 120 µM)
- MIC (Bacillus subtilis [10]): 30 µg/mL (≈ 89.7 µM)
- zone of inhibition at 40 µg/mL (Pseudomonas aeruginosa [11]): 20 mm
- MIC (Candida albicans [12]): 40 µg/mL (≈ 120 µM)
- zone of inhibition at 40 µg/mL (Klebsiella pneumoniae [13]): 22 mm

SMILES: Clc1ccc(C2=NN(c3ccccc3)C(c3ccc(Cl)cc3)C2)cc1 (stereo unspecified)
- zone of inhibition at 40 µg/mL (Aspergillus niger [1]): 22 mm
- Activity (Mus musculus): 50%
- zone of inhibition at 40 µg/mL (Streptococcus pyogenes [2]): 24 mm
- zone of inhibition at 40 µg/mL (Bacillus subtilis [3]): 22 mm
- Activity [4]: 31.8%
- MIC (Klebsiella pneumoniae [5]): 30 µg/mL (≈ 81.7 µM)
- MIC (Streptococcus pyogenes [6]): 30 µg/mL (≈ 81.7 µM)
- MIC (Aspergillus niger [7]): 30 µg/mL (≈ 81.7 µM)
- zone of inhibition at 40 µg/mL (Candida albicans [8]): 21 mm
- MIC (Pseudomonas aeruginosa [9]): 30 µg/mL (≈ 81.7 µM)
- MIC (Bacillus subtilis [10]): 30 µg/mL (≈ 81.7 µM)
- zone of inhibition at 40 µg/mL (Pseudomonas aeruginosa [11]): 21 mm
- MIC (Candida albicans [12]): 30 µg/mL (≈ 81.7 µM)
- zone of inhibition at 40 µg/mL (Klebsiella pneumoniae [13]): 20 mm

SMILES: OC(Cn1cncn1)(Cn1cncn1)c1ccc(F)cc1F [FLUCONAZOLE]
- zone of inhibition at 40 µg/mL (Aspergillus niger [1]): 24 mm
- zone of inhibition at 40 µg/mL (Candida albicans [8]): 23 mm

SMILES: O=C1O[C@H]([C@@H](O)CO)C(O)=C1O
- Activity [4]: 69.2%

SMILES: c1ccc(C2=NN(c3ccccc3)C(c3ccccc3)C2)cc1 (stereo unspecified)
- zone of inhibition at 40 µg/mL (Aspergillus niger [1]): 23 mm
- Activity (Mus musculus): 57.8%
- zone of inhibition at 40 µg/mL (Streptococcus pyogenes [2]): 23 mm
- zone of inhibition at 40 µg/mL (Bacillus subtilis [3]): 23 mm
- Activity [4]: 23.1%
- MIC (Klebsiella pneumoniae [5]): 40 µg/mL (≈ 134 µM)
- MIC (Streptococcus pyogenes [6]): 40 µg/mL (≈ 134 µM)
- MIC (Aspergillus niger [7]): 30 µg/mL (≈ 101 µM)
- zone of inhibition at 40 µg/mL (Candida albicans [8]): 21 mm
- MIC (Pseudomonas aeruginosa [9]): 30 µg/mL (≈ 101 µM)
- MIC (Bacillus subtilis [10]): 40 µg/mL (≈ 134 µM)
- zone of inhibition at 40 µg/mL (Pseudomonas aeruginosa [11]): 22 mm
- MIC (Candida albicans [12]): 30 µg/mL (≈ 101 µM)
- zone of inhibition at 40 µg/mL (Klebsiella pneumoniae [13]): 23 mm

SMILES: COc1ccc(C2=NN(c3ccccc3)C(c3ccc(OC)cc3)C2)cc1 (stereo unspecified)
- zone of inhibition at 40 µg/mL (Aspergillus niger [1]): 21 mm
- Activity (Mus musculus): 58.74%
- zone of inhibition at 40 µg/mL (Streptococcus pyogenes [2]): 23 mm
- zone of inhibition at 40 µg/mL (Bacillus subtilis [3]): 21 mm
- Activity [4]: 39.6%
- MIC (Klebsiella pneumoniae [5]): 30 µg/mL (≈ 83.7 µM)
- MIC (Streptococcus pyogenes [6]): 40 µg/mL (≈ 112 µM)
- MIC (Aspergillus niger [7]): 30 µg/mL (≈ 83.7 µM)
- zone of inhibition at 40 µg/mL (Candida albicans [8]): 20 mm
- MIC (Pseudomonas aeruginosa [9]): 30 µg/mL (≈ 83.7 µM)
- MIC (Bacillus subtilis [10]): 40 µg/mL (≈ 112 µM)
- zone of inhibition at 40 µg/mL (Pseudomonas aeruginosa [11]): 24 mm
- MIC (Candida albicans [12]): 40 µg/mL (≈ 112 µM)
- zone of inhibition at 40 µg/mL (Klebsiella pneumoniae [13]): 22 mm

SMILES: O=C(O)c1cn(C2CC2)c2cc(N3CCNCC3)c(F)cc2c1=O [CIPROFLOXACIN]
- zone of inhibition at 40 µg/mL (Streptococcus pyogenes [2]): 24 mm
- zone of inhibition at 40 µg/mL (Bacillus subtilis [3]): 24 mm
- zone of inhibition at 40 µg/mL (Pseudomonas aeruginosa [11]): 24 mm
- zone of inhibition at 40 µg/mL (Klebsiella pneumoniae [13]): 24 mm

SMILES: Brc1ccc(C2=NN(c3ccccc3)C(c3ccc(Br)cc3)C2)cc1 (stereo unspecified)
- zone of inhibition at 40 µg/mL (Aspergillus niger [1]): 20 mm
- Activity (Mus musculus): 53.75%
- zone of inhibition at 40 µg/mL (Streptococcus pyogenes [2]): 21 mm
- zone of inhibition at 40 µg/mL (Bacillus subtilis [3]): 23 mm
- Activity [4]: 40.3%
- MIC (Klebsiella pneumoniae [5]): 40 µg/mL (≈ 87.7 µM)
- MIC (Streptococcus pyogenes [6]): 40 µg/mL (≈ 87.7 µM)
- MIC (Aspergillus niger [7]): 40 µg/mL (≈ 87.7 µM)
- zone of inhibition at 40 µg/mL (Candida albicans [8]): 20 mm
- MIC (Pseudomonas aeruginosa [9]): 30 µg/mL (≈ 65.8 µM)
- MIC (Bacillus subtilis [10]): 40 µg/mL (≈ 87.7 µM)
- zone of inhibition at 40 µg/mL (Pseudomonas aeruginosa [11]): 22 mm
- MIC (Candida albicans [12]): 20 µg/mL (≈ 43.8 µM)
- zone of inhibition at 40 µg/mL (Klebsiella pneumoniae [13]): 21 mm

SMILES: c1ccc(-c2ccc(C3=NN(c4ccccc4)C(c4ccc(-c5ccccc5)cc4)C3)cc2)cc1 (stereo unspecified)
- zone of inhibition at 40 µg/mL (Aspergillus niger [1]): 22 mm
- Activity (Mus musculus): 53.1%
- zone of inhibition at 40 µg/mL (Streptococcus pyogenes [2]): 21 mm
- zone of inhibition at 40 µg/mL (Bacillus subtilis [3]): 23 mm
- Activity [4]: 18.2%
- MIC (Klebsiella pneumoniae [5]): 30 µg/mL (≈ 66.6 µM)
- MIC (Streptococcus pyogenes [6]): 40 µg/mL (≈ 88.8 µM)
- MIC (Aspergillus niger [7]): 40 µg/mL (≈ 88.8 µM)
- zone of inhibition at 40 µg/mL (Candida albicans [8]): 21 mm
- MIC (Pseudomonas aeruginosa [9]): 30 µg/mL (≈ 66.6 µM)
- MIC (Bacillus subtilis [10]): 40 µg/mL (≈ 88.8 µM)
- zone of inhibition at 40 µg/mL (Pseudomonas aeruginosa [11]): 22 mm
- MIC (Candida albicans [12]): 40 µg/mL (≈ 88.8 µM)
- zone of inhibition at 40 µg/mL (Klebsiella pneumoniae [13]): 23 mm

SMILES: Cc1ccc(C2=NN(c3ccccc3)C(c3ccc(C)cc3)C2)cc1 (stereo unspecified)
- zone of inhibition at 40 µg/mL (Aspergillus niger [1]): 24 mm
- Activity (Mus musculus): 58.16%
- zone of inhibition at 40 µg/mL (Streptococcus pyogenes [2]): 22 mm
- zone of inhibition at 40 µg/mL (Bacillus subtilis [3]): 20 mm
- Activity [4]: 22.4%
- MIC (Klebsiella pneumoniae [5]): 30 µg/mL (≈ 91.9 µM)
- MIC (Streptococcus pyogenes [6]): 20 µg/mL (≈ 61.3 µM)
- MIC (Aspergillus niger [7]): 40 µg/mL (≈ 123 µM)
- zone of inhibition at 40 µg/mL (Candida albicans [8]): 22 mm
- MIC (Pseudomonas aeruginosa [9]): 40 µg/mL (≈ 123 µM)
- MIC (Bacillus subtilis [10]): 30 µg/mL (≈ 91.9 µM)
- zone of inhibition at 40 µg/mL (Pseudomonas aeruginosa [11]): 23 mm
- MIC (Candida albicans [12]): 30 µg/mL (≈ 91.9 µM)
- zone of inhibition at 40 µg/mL (Klebsiella pneumoniae [13]): 24 mm
